Where a name gives a salt, the structure may show the parent alone. Read-outs that look alike come from different tables or passages of the source.
Assays:
MAO-A [1] = target: T1, MAO-A (Mus musculus, UniProt Q64133); test: Inhibition of MAO activity ex vivo (brain); type: in vivo, mice
T1 construct: from tissue; host or cells: mouse brain
T1 sequence (Q64133 1-526): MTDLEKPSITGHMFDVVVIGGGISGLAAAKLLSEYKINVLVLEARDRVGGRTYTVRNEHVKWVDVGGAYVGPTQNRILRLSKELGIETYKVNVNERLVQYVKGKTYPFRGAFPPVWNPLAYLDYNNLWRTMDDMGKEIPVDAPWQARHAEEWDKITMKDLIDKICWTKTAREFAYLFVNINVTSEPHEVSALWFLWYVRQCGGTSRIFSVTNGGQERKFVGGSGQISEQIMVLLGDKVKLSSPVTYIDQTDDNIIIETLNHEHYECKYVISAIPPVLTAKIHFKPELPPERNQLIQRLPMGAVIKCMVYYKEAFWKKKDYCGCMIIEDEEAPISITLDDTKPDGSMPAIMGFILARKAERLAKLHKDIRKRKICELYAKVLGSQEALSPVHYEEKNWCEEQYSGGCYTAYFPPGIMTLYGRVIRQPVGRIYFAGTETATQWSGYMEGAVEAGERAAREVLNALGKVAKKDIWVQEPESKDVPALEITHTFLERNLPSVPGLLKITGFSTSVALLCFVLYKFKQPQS
Procedure, shortened: (§1)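 Male Sabra mice dosed with compound in 0.9% saline (2-3 per dose) and killed 2 h post-dose or at peak AChE-inhibition time. Brain homogenized in 0.3 M sucrose and assayed for MAO activity with 50 μM PEA (MAO-B) or 1 mM 5-HT (MAO-A) as substrate.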

MAO-B = target: T2, MAO-B (Mus musculus, UniProt Q8BW75); test: Inhibition of MAO activity ex vivo (brain); type: in vivo, mice
T2 construct: from tissue; host or cells: mouse brain
T2 sequence (Q8BW75 1-520): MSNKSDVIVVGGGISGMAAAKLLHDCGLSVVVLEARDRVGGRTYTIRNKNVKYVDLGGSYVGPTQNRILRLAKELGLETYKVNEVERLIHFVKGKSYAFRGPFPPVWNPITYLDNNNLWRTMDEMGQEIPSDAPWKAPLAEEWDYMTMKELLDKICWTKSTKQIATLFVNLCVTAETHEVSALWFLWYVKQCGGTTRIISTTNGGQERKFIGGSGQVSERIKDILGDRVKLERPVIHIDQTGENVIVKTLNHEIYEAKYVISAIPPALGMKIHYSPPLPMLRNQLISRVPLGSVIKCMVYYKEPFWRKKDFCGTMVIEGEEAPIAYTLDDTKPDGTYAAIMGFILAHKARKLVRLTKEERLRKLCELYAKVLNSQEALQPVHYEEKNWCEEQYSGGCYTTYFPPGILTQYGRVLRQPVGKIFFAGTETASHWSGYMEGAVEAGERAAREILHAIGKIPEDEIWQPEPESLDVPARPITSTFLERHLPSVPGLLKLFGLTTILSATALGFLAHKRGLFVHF
Procedure, shortened: as §1

[2] = test system: mice, hypobaric hypoxic model; test: animal or person; type: in vivo; settings: Mus musculus; for response vs control in vivo at 8 mg/kg: read-out: Protection (survival time), 8 mg/kg sc, 60 min before hypoxia
Excerpt: A 12 liter desiccator (desiccator A) and a 2.5 liter desiccator (desiccator B) were separately connected to a vacuum pump. Desiccator B was disconnected and allowed to equilibrate with room air whilst desiccator A was evacuated to a pressure of 100 mmHg. Four male ICR albino mice (22-28 g) were placed in desiccator B. Desiccator B was then closed to room air and connected to desiccator A. The pressure inside desiccator B was monitored using a mercury manometer and at the point were the pressure in desiccator B reached 200 mmpg (usually within 14 seconds), the two desiccators were disconnected from the vacuum pump and the pump switched off. The survival time from the moment of induction of hypoxia to the time of cessation of respiration was recorded for each mouse for a maximum of 15 minutes after which time room air was reintroduced to desiccator B. Survivors were monitored for signs of lethargy or vitality.
Effect of drug treatment was assessed as the percent of the survival time of the drug treated group with respect to the saline injected or vehicle injected control group. […] The effect of each dose of test drug was determined in duplicate i.e. two groups of 4 mice.
Positive reference drugs were sodium pentobarbital at a dose of 40 mg/kg, and diazepam 10 mg/kg given 0.5 h prior to hypoxia, physostigmine 0.2 and 0.4 mg/kg and neostigmine 0.2 mg/kg given sc 30 min before hypoxia. Methyl atropine 1 mg/kg was given sc. 10 min. before physostigmine.
Test drugs were dissolved in 0.9% saline, and injected sc. in the nip of the neck at a dose in accordance with body weight, 60-90 min. before hypoxia. The volume of injection was 0.2-0.3 mL per mouse (10 mL/kg). The initial dose was about one third of the reported LD50 for acetylcholine esterase inhibition. If no protection could be obtained, the dose was further increased to the nearest non-toxic dose. In case of protection, the dose was further reduced in an attempt to locate the “protective” dose range.

MAO-A [3] = target: T3, MAO-A (Rattus norvegicus, UniProt P21396); test: Inhibition of MAO activity in vitro, 5-HT as substrate; type: biochemical; parameters: The MAO enzyme source was a homogenate of rat brain in 0.3M sucrose; from tissue; host or cells: rat brain homogenate, 600 g supernatant
T3 sequence (P21396 1-526): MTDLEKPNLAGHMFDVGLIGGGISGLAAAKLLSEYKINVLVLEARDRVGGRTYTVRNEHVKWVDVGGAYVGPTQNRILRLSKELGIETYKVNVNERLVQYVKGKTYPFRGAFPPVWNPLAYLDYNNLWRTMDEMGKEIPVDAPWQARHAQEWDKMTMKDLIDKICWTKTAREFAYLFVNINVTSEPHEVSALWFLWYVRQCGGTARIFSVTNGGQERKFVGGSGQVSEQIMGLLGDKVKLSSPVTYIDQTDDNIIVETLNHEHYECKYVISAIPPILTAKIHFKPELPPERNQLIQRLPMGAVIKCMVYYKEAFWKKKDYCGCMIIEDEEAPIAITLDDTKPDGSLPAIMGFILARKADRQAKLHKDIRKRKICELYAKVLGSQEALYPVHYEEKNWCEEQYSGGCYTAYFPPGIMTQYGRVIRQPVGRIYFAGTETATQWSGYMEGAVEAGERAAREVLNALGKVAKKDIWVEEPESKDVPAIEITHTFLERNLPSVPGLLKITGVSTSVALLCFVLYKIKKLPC
Method: Substrate concentrations used were 50 μM (PEA) and 1 mM (5-HT).

[4] = mice, within 6 hours after administration
[5] = sc, read-out: Protection (survival time), 50 mg/kg sc, 60 min before hypoxia
[6] = MAO-A Inhibition In vitro IC50, rat brain homogenate, 5-HT substrate

SMILES: C#CCNC1CCc2ccc(OC(=O)N(C)CC)cc21 (centres unmarked) [Compound 25, 6-(N-Me, N-Etcarbamyloxy) N-propargyl aminoindan, HCl]
- MAO-A Inhibition Ex vivo ED50 (MAO-A [1]; mouse, in vivo): >>350 μmoles/kg
- MAO-B Inhibition Ex vivo ED50 (MAO-B; mouse, in vivo): 200 µmol/kg
- response vs control in vivo at 25 mg/kg ([2]; 25 mg/kg sc, 60 min before hypoxia, read-out: Protection (survival time)): 84 ± 35%
- response vs control in vivo at 50 mg/kg ([2]; 50 mg/kg sc, 60 min before hypoxia, read-out: Protection (survival time)): 380 ± 231%
- response vs control in vivo at 75 mg/kg ([2]; 75 mg/kg sc, 60 min before hypoxia, read-out: Protection (survival time)): 559 ± 225%
- response vs control in vivo at 100 mg/kg ([2]; 100 mg/kg sc, 60 min before hypoxia, read-out: Protection (survival time)): 761 ± 91%
- Acute Toxicity LD50 (LD) (mice; [4]): 1400 µmol/kg
- Therapeutic Ratio LD/AC (mice; mouse, in vivo): 10.8
- IC50 (MAO-A [3]; MAO-A Inhibition In vitro IC50): 270 µM

SMILES: CCN(C)C(=O)Oc1ccc2c(c1)C(NC)CC2 (centres unmarked) [Compound 10]
- MAO-A Inhibition Ex vivo ED50 (MAO-A [1]; mice, brain tissue): >175 µmol/kg
- MAO-B Inhibition Ex vivo ED50 (MAO-B; mice, brain tissue): >175 µmol/kg
- response vs control in vivo at 10 mg/kg ([2]; sc, read-out: Protection (survival time), 10 mg/kg sc, 90 min before hypoxia): 304 ± 129%
- response vs control in vivo at 25 mg/kg ([2]; sc, read-out: Protection (survival time), 25 mg/kg sc, 90 min before hypoxia): 700 ± 201%
- response vs control in vivo at 50 mg/kg ([2]; sc, read-out: Protection (survival time), 50 mg/kg sc, 90 min before hypoxia): 705 ± 101%
- Acute Toxicity LD50 (LD) (mice; [4]): 740 µmol/kg
- IC50 (MAO-A [3]; rat brain homogenate, 5-HT substrate, read-out: MAO-A Inhibition In vitro IC50): 22 µM

SMILES: C#CCNC1CCc2cccc(OC(=O)N(C)C)c21 (centres unmarked) [Compound 27]
- MAO-A Inhibition Ex vivo ED50 (MAO-A [1]; mice, brain tissue): >>160 μmoles/kg
- MAO-B Inhibition Ex vivo ED50 (MAO-B; mice, brain tissue): >>160 μmoles/kg
- response vs control in vivo at 3 mg/kg ([2]; sc, read-out: Protection (survival time), 3 mg/kg sc, 60 min before hypoxia): 287 ± 319%
- response vs control in vivo at 8 mg/kg ([2]; sc): 119 ± 45%
- response vs control in vivo at 15 mg/kg ([2]; sc, read-out: Protection (survival time), 15 mg/kg sc, 60 min before hypoxia): 143 ± 56%
- response vs control in vivo at 50 mg/kg [2, 5]: 455 ± 23%
- Acute Toxicity LD50 (LD) (mice; mouse, in vivo): 300 µmol/kg
- Therapeutic Ratio LD/AC (mice; mouse, in vivo): 10
- IC50 (MAO-A [3]; [6]): > 1000 µM

SMILES: CN(C)C(=O)Oc1ccc2c(c1)C(N)CC2 (centres unmarked) [Compound 1]
- MAO-A Inhibition Ex vivo ED50 (MAO-A [1]; mice, brain tissue): >>80 μmoles/kg
- MAO-B Inhibition Ex vivo ED50 (MAO-B; mice, brain tissue): >>80 μmoles/kg
- response vs control in vivo at 2 mg/kg ([2]; sc, read-out: Protection (survival time), 2 mg/kg sc, 60 min before hypoxia): 120 ± 51%
- response vs control in vivo at 4 mg/kg ([2]; sc, read-out: Protection (survival time), 4 mg/kg sc, 60 min before hypoxia): 470 ± 200%
- response vs control in vivo at 8 mg/kg ([2]; sc): 637 ± 116%
- Acute Toxicity LD50 (LD) (mice; [4]): 83.8 µmol/kg
- IC50 (MAO-A [3]; [6]): 75 µM

SMILES: C#CCN(C)C1CCc2ccc(OC(=O)N(C)C)cc21 (centres unmarked) [Compound 29]
- MAO-A Inhibition Ex vivo ED50 (MAO-A [1]; mice, brain tissue): 50 µmol/kg
- MAO-B Inhibition Ex vivo ED50 (MAO-B; mice, brain tissue): 30 µmol/kg
- response vs control in vivo at 25 mg/kg ([2]; sc, read-out: Protection (survival time), 25 mg/kg sc, 30 min before hypoxia): 273 ± 183%
- response vs control in vivo at 25 mg/kg ([2]; sc, read-out: Protection (survival time), 25 mg/kg sc, 60 min before hypoxia): 131 ± 56%
- response vs control in vivo at 53 mg/kg ([2]; sc, read-out: Protection (survival time), 53 mg/kg sc, 60 min before hypoxia): 638 ± 10%
- response vs control in vivo at 77 mg/kg ([2]; sc, read-out: Protection (survival time), 77 mg/kg sc, 60 min before hypoxia): 508 ± 206%
- Acute Toxicity LD50 (LD) (mice; mouse, in vivo): 500 µmol/kg
- Therapeutic Ratio LD/AC (mice; mouse, in vivo): 9.3
- IC50 (MAO-A [3]; [6]): 40 µM

SMILES: C#CCNC1CCc2ccc(OC(=O)N(C)C)cc21 (centres unmarked) [Compound 24, 6-(N,N-Dimethylcarbamyloxy)-N-propargyl aminoindan mesylate]
- MAO-A Inhibition Ex vivo ED50 (MAO-A [1]; mice, brain tissue): >120 µmol/kg
- MAO-B Inhibition Ex vivo ED50 (MAO-B; mice, brain tissue): 100 µmol/kg
- response vs control in vivo at 21 mg/kg ([2]; sc, read-out: Protection (survival time), 21 mg/kg sc, 60 min before hypoxia): 269 ± 166%
- response vs control in vivo at 50 mg/kg [2, 5]: 738%
- Acute Toxicity LD50 (LD) (mice; mouse, in vivo): 179 µmol/kg
- IC50 (MAO-A [3]; [6]): 850 µM

— patent USRE39616E1, “Aminoindan derivatives” (priority 1996, dated 2007)
